Assay results from US20040171566A1, “Antisense modulation of p38 mitogen activated protein kinase expression” (priority 1999, published 2004).
In the oligonucleotide strings, read from the 5' end, every base follows the letter of its sugar. An asterisk marks phosphorothioate; unmarked linkages are phosphodiester. Other units and linkages are bracketed, terminal groups are in braces. A string of capitals states the bases alone. e = 2'-O-(2-methoxyethyl) (MOE); [5mC] = 5-methylcytosine; d = 2'-deoxy (DNA)

Tests used:
Format in all cases: cell-based
rat p38α mRNA = experiment: Inhibition of rat p38α mRNA expression in A-10 cells, Northern blot; details: Rat A-10 cells, 200 nM oligonucleotide, 24 hours
Experimental: Rat p38α antisense oligonucleotides were screened in Rat A-10 cells. A-10 cells (American Type Culture Collection, Manassas, Va.) were grown in high-glucose DMEM (Life Technologies, Gaithersburg, Md.) medium containing 10% fetal calf serum (FCS). Cells were treated with oligonucleotide as described in Example 2. Oligonucleotide concentration was 200 nM. mRNA was isolated 24 hours after time zero and quantitated by Northern blot as described in Example 2.

mouse p38β mRNA = experiment: Inhibition of mouse p38β mRNA expression in bEND.3 cells, Northern blot
Experimental: (§1) bEND.3, a mouse endothelial cell line (gift of Dr. Werner Risau; see Montesano et al., Cell, 1990, 62, 435, and Stepkowski et al., J. Immunol., 1994, 153, 5336) were grown in high-glucose DMEM (Life Technologies, Gaithersburg, Md.) medium containing 10% fetal bovine serum (FBS) and 1% Penicillin/Streptomycinin. Cells were plated at approximately 2×10^5 cells per 100 mm dish. Within 48 hours of plating, the cells were washed with phosphate-buffered saline (Life Technologies). Then, Opti-MEM7 medium containing 3 μg/mL LIPOFECTIN^7 and an appropriate amount of oligonucleotide were added to the cells. As a control, cells were treated with LIPOFECTIN^7 without oligonucleotide under the same conditions and for the same times as the oligonucleotide-treated samples.
(§2) After 4 hours at 37° C., the medium was replaced with high glucose DMEM medium containing 10% FBS and 1% Penicillin/Streptomycinin. The cells were typically allowed to recover overnight (about 18 to 24 hours) before RNA and/or protein assays were performed as described in Example 2. The p38α, p38β and G3PDH probes used were identical to those described in Example 2.
(§3) Rat p38α antisense oligonucleotides were screened in bEND.3 cells for inhibition of p38α and p38β mRNA expression. The concentration of oligonucleotide used was 100 nM. Oligonucleotides 21844 (SEQ ID NO. 47), 21845 (SEQ ID NO. 48), 21872 (SEQ ID NO. 51), 21873 (SEQ ID NO. 52), 21875 (SEQ ID NO. 54), and 21876 (SEQ ID NO.
(§4) Mouse p38β antisense sequences were screened in bEND.3 cells as described in Example 4.

mouse p38α mRNA [1] = experiment: Mouse p38α mRNA levels in bEND.3 cells, quantitative real-time PCR; details: mouse bEND.3 cells, at 50 nM
In short: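 Mouse bEND.3 cells, antisense oligonucleotide-treated; p38α mRNA measured by one-step real-time RT-PCR (RT 30 min at 48 °C, then 40 cycles) with a FAM/TAMRA probe. Levels normalized to GAPDH or RiboGreen total RNA, and percent inhibition derived from standard curves of untreated-control mRNA.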

IL-6 secretion = IL-6 secretion by IL-1 stimulated bEND.3 cells, ELISA; details: 48 hours after oligonucleotide
Experimental: p38 MAPK antisense oligonucleotides were tested for their ability to reduce IL-6 secretion. bEND.3 cells were cultured and treated as described in Example 4 except that 48 hours after oligonucleotide treatment, cells were stimulated for 6 hours with 1 ng/mL recombinant mouse IL-1 (R&D Systems, Minneapolis, Minn.). IL-6 was measured in the medium using an IL-6 ELISA kit (Endogen Inc., Woburn, Mass.).

mouse p38α mRNA [2] = experiment: Inhibition of mouse p38α mRNA expression in bEND.3 cells, Northern blot
Experimental: as §1, §2, §3, §4

[3] = 100 nM rat p38α antisense oligonucleotide

Substance	% p38α mRNA EXPRESSION (rat p38α mRNA)	% p38α mRNA INHIBITION (rat p38α mRNA)	% p38β mRNA Inhibition (mouse p38β mRNA; [3])	reduction of p38α mRNA (mouse p38α mRNA [1])	% IL-6 INHIBITION (IL-6 secretion; DOSE 100, 1 ng/mL mouse IL-1 for 6 hours)	% p38β mRNA Inhibition (mouse p38β mRNA; dose 1 nM)	% p38β mRNA Inhibition (mouse p38β mRNA; dose 5 nM)	% p38β mRNA Inhibition (mouse p38β mRNA; dose 25 nM)	% p38β mRNA Inhibition (mouse p38β mRNA; dose 100 nM (dose response))	% p38α mRNA INHIBITION (mouse p38α mRNA [2]; dose 25 nM)	% p38α mRNA INHIBITION (mouse p38α mRNA [2]; dose 100 nM (dose response))	% IL-6 INHIBITION (IL-6 secretion; DOSE 200, 1 ng/mL mouse IL-1 for 6 hours)	% p38α mRNA INHIBITION (mouse p38α mRNA [2]; dose 1 nM)	% p38α mRNA INHIBITION (mouse p38α mRNA [2]; dose 5 nM)	% p38α mRNA INHIBITION (mouse p38α mRNA [2]; [3])
AoGoGoCoTsAsGsAsGsCsCsCsAsGsGsAoGoCoCoA (antisense eAeGeGe[5mC]eT*dA*dG*dA*dG*d[5mC]*d[5mC]*d[5mC]*dA*dG*dG*eAeGe[5mC]e[5mC]eA) [ISIS 21876]	61%	39%	minimal effects												
AoGoGoToGsCsTsCsAsGsGsAsCsTsCsCoAoToToT (antisense eAeGeGeTeG*d[5mC]*dT*d[5mC]*dA*dG*dG*dA*d[5mC]*dT*d[5mC]*e[5mC]eAeTeTeT) [ISIS 21873]	19%			> 70%	49%	53%	31%	28%	25%	54%	92%				
CoAoToCoAsTsCsAsGsGsGsTsCsGsTsGoGoToAoC (antisense e[5mC]eAeTe[5mC]eA*dT*d[5mC]*dA*dG*dG*dG*dT*d[5mC]*dG*dT*eGeGeTeAe[5mC]) [ISIS 21871]	12%						4%	24%	56%	34%	89%	23%	1%	23%	
CoToGoCoGsAsCsAsTsTsTsTsCsCsAsGoCoGoGoC (antisense e[5mC]eTeGe[5mC]eG*dA*d[5mC]*dA*dT*dT*dT*dT*d[5mC]*d[5mC]*dA*eGe[5mC]eGeGe[5mC]) [ISIS 21844]	75%	25%						8%	5%	36%	80%				
GoAoGoCoAsGsGsCsAsGsAsCsTsGsCsCoAoAoGoG (antisense eGeAeGe[5mC]eA*dG*dG*d[5mC]*dA*dG*dA*d[5mC]*dT*dG*d[5mC]*e[5mC]eAeAeGeG) [ISIS 21875]	26%		minimal effects			11%	16%	2%	4%	33%	72%				
GoAoGoCoCsTsGsTsGsCsCsTsGsGsCsAoCoToGoG (antisense eGeAeGe[5mC]e[5mC]*dT*dG*dT*dG*d[5mC]*d[5mC]*dT*dG*dG*d[5mC]*eAe[5mC]eTeGeG) [ISIS 21877]	12%		13%												55%
